Experimental data as given in patent US20230271956A1, “AMIDE DERIVATIVES” (Merck Patent GmbH, priority 2020, published 2023).

How the values were obtained:
human rec ACSS2 = target: T1, human rec ACSS2 (Homo sapiens, UniProt Q9NR19); test: Biochemical activity ACSS2 assay (AMP-Glo); details: human recombinant ACSS2, AMP-Glo, 180 min at 37° C.
T1 construct: myc (C); purchased Origene
Outline: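 C-terminal myc-tagged human recombinant ACSS2 (1 nM) reacted with 100 µM ATP, 100 µM CoA and 500 µM acetate (final) in pH 7.5 Hepes buffer for 180 min at 37° C, compound in 10 concentrations from 30 µM. Released AMP detected by AMP-Glo luminescence. IC50 normalised to inhibitor-free reaction and 5 µM reference inhibitor.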

ACSS2 = target: T2, ACSS2 (Homo sapiens, UniProt Q9NR19); test: Cellular assay of 14C acetate incorporation into fatty acids (IC50 ACSS2 cellular lipids); type: cell-based; details: HCT-15 cells
T2 construct: endogenous fatty acid synthesis activity in the human HCT-15 cancer cell line; endogenous in cells; host or cells: HCT-15
Experimental: This protocol describes a cellular assay capable to quantify endogenous fatty acid synthesis activity in the human HCT-15 cancer cell line following the incorporation of extracellularly administered radiolabeled ^14C acetate with a scintillation proximity based read out on extracted fatty acids.
HCT-15 cells were grown in RPMI 1640 (Gibco) supplemented with 2 mM glutamine, 1 mM sodium pyruvate 10 mM HEPES and 10 % FCS (heat-inactivated) passaged every 2-3 days to remain a subconfluent, vital culture. A working cell bank was prepared with each aliquot containing 1x10^7 viable cells. After thawing, these cells are dilute immediately 1:20 in pre-warmed (37° C.) culture medium. Cells are collected by centrifugation at 200 x g for 5 min, and the supernatant is replaced by 30 mL of fresh culture medium per aliquot to obtain a cell suspension containing 350000 cells/ml. From this cell suspension 100 µL are dispersed into each well of a collagen coated 96 well plate, (black, clear bottom, PS, F-bottom, Greiner) and culture for 24 h (37° C., 5% CO2). After incubation the culture medium is removed and the wells are washed once with 100 µL PBS++ (supplemented with Mg^2+/ Ca^2+, Gibco) and 50 µL assay medium (RPMI 1640 + 10 mM HEPES) are added to each well. Compounds serial dilutions are prepared from 10 mM stock solutions in DMSO using a fixed dilution factor (usually 1:3). After preparation of the dilution series in DMSO, the individual dilutions are further diluted in the assay medium. This working dilution is prepared such, that the concentration is 7x of the final concentration in the assay. The maximal DMSO concentration in the final assay is 0.1%.
To each well 10 µL compound working dilution or DMSO blank are added and the cells are cultured for 2 h (37° C., 5% CO2). Then 10 µL AlamarBlue reagent (Invitrogen) containing 14 µCi/mL ^14C-acetate (Perkin Elmer) are added to each well (70 µl total volume) and cells are again cultured for 2 h. Cell viability is verified by measuring the AlamarBlue fluorescence (Tecan Safire, ex: 544 nm / em: 590 nm). After incubation the culture medium is removed and the wells are carefully washed once with cold 100 µL PBS++. For cell lysis and fatty acid recovery 50 µl 0.1 M NaOH and 0.1 % Triton-X100 are added per well. The plate is sealed with PlateLoc (clear peelable heat seal, Agilent) and incubate at 70° C. for 16-24 h. After cooling to room temperature, the plates are centrifuged for 1 min at 1000 rpm and the plate seals are removed. For acidification 150 µL 0.1 M HCl are added to each well, mixed and 150 µL of the mixture are transferred into a 96 well FlashPlate (Perkin Elmer). The plates are sealed with TopSeaI-a (Perkin Elmer). To allow for the fatty acid binding to the well surfaces the plates are incubate for 4 h at 70° C. After cooling to room temperature, the plates are centrifuged for 1 min at 1000 rpm and stored for 0.5-2 h at room temperature in the dark. Radioactivity from ^14C incorporation into fatty acids in the wells is measured as CPM count in a MicroBeta scintillation counter (Perkin Elmer).

CHO-K1 cells = test: Micronucleus assay (MNT) in vitro; type: cell-based; design: key: A: negative, putative negative (micronuclei detected beyond threshold of 60% cyctotoxicity); B: positive; details: 24 hrs treatment, 0.2 µM to 100 µM
Experimental: The in vitro MNT assay is performed in CHO-K1 cells due to their stable and welI-characterized karyotype, high sensitivity and suitability for a high content imaging approach. They have a basal spontaneous micronucleus frequency of 3-4%.
24 hrs after plating CHO-K1 cells are treated with test compounds for 24 hrs (in duplicates; fixed concentration ranges from 0.2 µM to 100 µM in 2-fold dilution steps). After a medium change cells are incubated for 24 hrs with Cytochalasin B to block cytokinesis and are then fixed and nuclei / micronuclei visualized with a DNA stain. Images are acquired with the Molecular Devices high content imagers IXU or IXM and are analyzed with the dedicated MetaXpress software micronucleus module. Criteria for scoring of micronuclei (MN) are the following: • diameter of the MN should be less than ⅓ of the main nucleus • MN should be separated from or marginally overlap with main nucleus (= no blebs) • MN should have similar staining as the main nucleus At least 1000 binucleated cells are evaluated per treatment replicate. Mitomycin C is used as reference stimulator of micronucleus formation. Cytotoxicity is evaluated in parallel and defined by comparing total nuclei count in compound-treated samples to neutral control samples treated with vehicle only (1% DMSO) (100% cytotoxicity means all cells are dead or lost).
A test compound is regarded as POSITIVE if generation of micronuclei and exhibition of less than 60% cytotoxicity at the same concentration can be observed.
Compounds are scored only in the soluble concentration range. Experimental data of the compounds shown in Table 1 in the MNT assay are shown in Table 2 below and classified in the following groups: […]

T2 sequence (Q9NR19 whole entry): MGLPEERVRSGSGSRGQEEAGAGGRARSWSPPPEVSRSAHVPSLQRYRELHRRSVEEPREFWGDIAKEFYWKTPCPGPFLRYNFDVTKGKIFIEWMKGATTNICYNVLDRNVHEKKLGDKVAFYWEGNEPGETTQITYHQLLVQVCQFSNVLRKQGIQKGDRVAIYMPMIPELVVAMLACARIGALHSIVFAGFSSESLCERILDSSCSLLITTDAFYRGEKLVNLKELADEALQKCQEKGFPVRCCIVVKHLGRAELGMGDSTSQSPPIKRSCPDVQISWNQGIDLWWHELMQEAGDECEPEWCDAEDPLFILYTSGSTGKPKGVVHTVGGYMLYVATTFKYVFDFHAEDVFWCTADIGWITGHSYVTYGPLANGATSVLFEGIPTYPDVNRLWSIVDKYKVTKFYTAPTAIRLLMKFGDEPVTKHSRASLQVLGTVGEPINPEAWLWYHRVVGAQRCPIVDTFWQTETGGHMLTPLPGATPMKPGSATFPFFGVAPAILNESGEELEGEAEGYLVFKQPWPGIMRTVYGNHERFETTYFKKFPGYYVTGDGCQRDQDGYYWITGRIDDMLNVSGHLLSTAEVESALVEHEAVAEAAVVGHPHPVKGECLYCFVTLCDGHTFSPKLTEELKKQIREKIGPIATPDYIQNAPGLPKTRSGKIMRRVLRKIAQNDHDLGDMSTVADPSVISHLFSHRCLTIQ
T1 sequence (Q9NR19 whole entry): as above

**Q.** With `CCc1c(C(O)(c2ccccc2F)c2ccccc2F)nn2cc(OC)c(C(=O)Nc3cnn(CC)c3)cc12` [Compound 4, 2-[Bis-(2-fluoro-phenyl)-hydroxy-methyl]-3-ethyl-6-methoxy-pyrazolo[1,5-a]pyridine-5-carboxylic acid (1-ethyl-1H-pyrazol-4-yl)-amide] as the molecule, how does the IC50 (human rec ACSS2) read?
**A.** Its IC50 is 10 to 100 nM.

**Q.** And the IC50 (ACSS2)?
**A.** Its IC50 is 10 to 100 nM.

**Q.** And the MNT (CHO-K1 cells)?
**A.** The MNT was “A”.

**Q.** With `CCc1c(C(O)(c2ccccc2)c2ccccc2)nc2ccc(C(=O)Nc3ncn(CC)n3)cn12` [Compound 25, 3-Ethyl-2-(hydroxy-diphenyl-methyl)-imidazo[1,2-a]pyridine-6-carboxylic acid (1-ethyl-1H-[1,2,4]triazol-3-yl)-amide] as the molecule, how does the IC50 (human rec ACSS2) read?
**A.** The IC50 was 1 to 10 nM.

**Q.** What about the IC50 (ACSS2) of the same molecule?
**A.** Its IC50 is 1 to 10 nM.

**Q.** What about the MNT (CHO-K1 cells) of the same molecule?
**A.** The MNT was “A”.

**Q.** Which results are given for `CCn1cnc(NC(=O)c2cc3c(nc2OC)nc(C(O)(c2ccccc2F)c2ccc(OC(F)F)cc2F)n3CC)n1` (racemic) [Compound 94, 2-{[4-(difluoromethoxy)-2-fluorophenyl](2-fluorophenyl)hydroxymethyl}-1-ethyl-N-(1-ethyl-1H-1,2,4-triazol-3-yl)-5-methoxy-1H-imidazo[4,5-b]pyridine-6-carboxamide]?
**A.** IC50 (human rec ACSS2): 1 to 10 nM; IC50 (ACSS2): 1 to 10 nM; MNT (CHO-K1 cells): A

**Q.** For `CCc1c(C(O)(c2ccccc2F)c2ccccc2F)nn2ccc(C(=O)Nc3ncn(CC)n3)cc12` [Compound 5, 2-[Bis-(2-fluoro-phenyl)-hydroxy-methyl]-3-ethyl-pyrazolo[1,5-a]pyridine-5-carboxylic acid (1-ethyl-1H-[1,2,4]triazol-3-yl)-amide], which IC50 (human rec ACSS2) is on record?
**A.** Its IC50 is 1 to 10 nM.

**Q.** What about the IC50 (ACSS2) of the same molecule?
**A.** Its IC50 is 0.01 to 1 nM.

**Q.** And the MNT (CHO-K1 cells)?
**A.** The MNT was “A”.

**Q.** Which results are given for `CCc1c(C(O)(c2ccccc2)c2ccccc2)nc2cc(Cl)c(C(=O)Nc3cnn(CC)c3)cn12` [Compound 19, 7-Chloro-3-ethyl-2-(hydroxy-diphenylmethyl)-imidazo[1,2-a]pyridine-6-carboxylic acid (1-ethyl-1H-pyrazol-4-yl)-amide]?
**A.** IC50 (human rec ACSS2): 10 to 100 nM; IC50 (ACSS2): 10 to 100 nM; MNT (CHO-K1 cells): A

**Q.** How did the IC50 (human rec ACSS2) turn out when `CCc1c(C(O)(c2ccccc2)c2ccccc2)nc2cc(F)c(C(=O)Nc3ncn(CC)n3)cn12` [Compound 20, 3-Ethyl-7-fluoro-2-(hydroxy-diphenylmethyl)-imidazo[1,2-a]pyridine-6-carboxylic acid (1-ethyl-1H-[1,2,4]triazol-3-yl)-amide] was run?
**A.** The IC50 was 1 to 10 nM.

**Q.** What about the IC50 (ACSS2) of the same molecule?
**A.** The IC50 was 1 to 10 nM.

**Q.** What about the MNT (CHO-K1 cells) of the same molecule?
**A.** Its MNT is “A”.

**Q.** What does the source list for `CCc1c(C(O)(c2ccccc2)c2ccccc2)nc2cc(OC)c(C(=O)Nc3cnn(CC)c3)cn12` [Compound 23, 3-Ethyl-2-(hydroxy-diphenyl-methyl)-7-methoxy-imidazo[1,2-a]pyridine-6-carboxylic acid (1-ethyl-1H-pyrazol-4-yl)-amide]?
**A.** IC50 (human rec ACSS2): 1 to 10 nM; IC50 (ACSS2): 10 to 100 nM; MNT (CHO-K1 cells): A

**Q.** Which results are given for `CCc1c(C(O)(c2ccccc2F)c2ccccc2F)nn2cc(Cl)c(C(=O)Nc3ncn(CC)n3)cc12` [Compound 2, 2-[Bis-(2-fluoro-phenyl)-hydroxy-methyl]-6-chloro-3-ethyl-pyrazolo[1,5-a]pyridine-5-carboxylic acid (1-ethyl-1H-[1,2,4]triazol-3-yl)-amide]?
**A.** IC50 (human rec ACSS2): 1 to 10 nM; IC50 (ACSS2): 0.01 to 1 nM; MNT (CHO-K1 cells): A

**Q.** What does the source list for `CCc1c(C(O)(c2ccccc2)c2ccccn2)nc2cc(OC)c(C(=O)Nc3ncn(CC)n3)cn12` (racemic) [Compound 16, 3-Ethyl-2-(hydroxy-phenyl-pyridin-2-yl-methyl)-7-methoxy-imidazo[1,2-a]pyridine-6-carboxylic acid (1-ethyl-1H-[1,2,4]triazol-3-yl)-amide]?
**A.** IC50 (human rec ACSS2): 10 to 100 nM; IC50 (ACSS2): 10 to 100 nM; MNT (CHO-K1 cells): A

**Q.** How did the IC50 (human rec ACSS2) turn out when `CCc1c(C(O)(c2ccccc2F)c2ccccc2F)nc2cc(Cl)c(C(=O)Nc3ncn(CC)n3)cn12` [Compound 31, 2-[Bis-(2-fluoro-phenyl)-hydroxy-methyl]-7-chloro-3-ethyl-imidazo[1,2-a]pyridine-6-carboxylic acid (1-ethyl-1H-[1,2,4]triazol-3-yl)-amide] was run?
**A.** The IC50 was 1 to 10 nM.

**Q.** What about the IC50 (ACSS2) of the same molecule?
**A.** The IC50 was 1 to 10 nM.

**Q.** And the MNT (CHO-K1 cells)?
**A.** The MNT was “A”.

**Q.** `CCc1c(C(O)(c2ccccc2)c2ccccc2)nn2cc(OC)c(C(=O)Nc3cnn(CC)c3)cc12` [Compound 8, 3-Ethyl-2-(hydroxy-diphenyl-methyl)-6-methoxy-pyrazolo[1,5-a]pyridine-5-carboxylic acid (1-ethyl-1H-pyrazol-4-yl)-amide] was tested. Which IC50 (human rec ACSS2) did it give?
**A.** The IC50 was 10 to 100 nM.

**Q.** And the IC50 (ACSS2)?
**A.** Its IC50 is 10 to 100 nM.

**Q.** What about the MNT (CHO-K1 cells) of the same molecule?
**A.** The MNT was “A”.

**Q.** For `CCn1cnc(NC(=O)c2cc3c(nc2OC)nc(C(O)(c2ccccc2)c2ccccc2)n3CC)n1` [Compound 103, 1-ethyl-N-(1-ethyl-1H-1,2,4-triazol-3-yl)-2-(hydroxydiphenylmethyl)-5-methoxy-1H-imidazo[4,5-b]pyridine-6-carboxamide], which IC50 (human rec ACSS2) is on record?
**A.** The IC50 was 1 to 10 nM.

**Q.** And the IC50 (ACSS2)?
**A.** The IC50 was 1 to 10 nM.

**Q.** What about the MNT (CHO-K1 cells) of the same molecule?
**A.** The MNT was “A”.

**Q.** How did the IC50 (human rec ACSS2) turn out when `CCc1c(C(O)(c2ccccc2F)c2ccccc2F)nc2cc(OC)c(C(=O)Nc3ncn(CC)n3)cn12` [Compound 28, 2-[Bis-(2-fluoro-phenyl)-hydroxy-methyl]-3-ethyl-7-methoxy-imidazo[1,2-a]pyridine-6-carboxylic acid (1-ethyl-1H-[1,2,4]triazol-3-yl)-amide] was run?
**A.** Its IC50 is 1 to 10 nM.

**Q.** And the IC50 (ACSS2)?
**A.** The IC50 was 1 to 10 nM.

**Q.** What about the MNT (CHO-K1 cells) of the same molecule?
**A.** Its MNT is “A”.

**Q.** Which results are given for `CCc1c(C(O)(c2ccccc2)c2ccccc2)nn2ccc(C(=O)Nc3cnn(CC)c3)cc12` [Compound 10, 3-Ethyl-2-(hydroxy-diphenyl-methyl)-pyrazolo[1,5-a]pyridine-5-carboxylic acid (1-ethyl-1H-pyrazol-4-yl)-amide]?
**A.** IC50 (human rec ACSS2): 10 to 100 nM; IC50 (ACSS2): 10 to 100 nM; MNT (CHO-K1 cells): A

**Q.** For `CCn1cnc(NC(=O)c2cc3c(nc2F)nc(C(O)(c2ccccc2F)c2ccccc2F)n3CC)n1` [Compound 91, 2-[bis(2-fluorophenyl)(hydroxy)methyl]-1-ethyl-N-(1-ethyl-1H-1,2,4-triazol-3-yl)-5-fluoro-1H-imidazo[4,5-b]pyridine-6-carboxamide], which IC50 (human rec ACSS2) is on record?
**A.** Its IC50 is 1 to 10 nM.

**Q.** And the IC50 (ACSS2)?
**A.** The IC50 was 1 to 10 nM.

**Q.** And the MNT (CHO-K1 cells)?
**A.** The MNT was “A”.

**Q.** Which IC50 (human rec ACSS2) does the source give for `CCc1c(C(O)(c2ccccc2)c2ccccc2)nn2cc(Cl)c(C(=O)Nc3cnn(CC)c3)cc12` [Compound 6, 6-Chloro-3-ethyl-2-(hydroxy-diphenylmethyl)-pyrazolo[1,5-a]pyridine-5-carboxylic acid (1-ethyl-1H-pyrazol-4-yl)-amide] here?
**A.** Its IC50 is 10 to 100 nM.

**Q.** And the IC50 (ACSS2)?
**A.** Its IC50 is 1 to 10 nM.

**Q.** What about the MNT (CHO-K1 cells) of the same molecule?
**A.** Its MNT is “A”.

**Q.** For `CCc1c(C(O)(c2ccccc2)c2ccccc2)nn2cc(OC)c(C(=O)Nc3ncn(CC)n3)cc12` [Compound 11, 3-Ethyl-2-(hydroxy-diphenyl-methyl)-6-methoxy-pyrazolo[1,5-a]pyridine-5-carboxylic acid (1-ethyl-1H-[1,2,4]triazol-3-yl)-amide], which IC50 (human rec ACSS2) is on record?
**A.** Its IC50 is 1 to 10 nM.

**Q.** What about the IC50 (ACSS2) of the same molecule?
**A.** Its IC50 is 1 to 10 nM.

**Q.** What about the MNT (CHO-K1 cells) of the same molecule?
**A.** The MNT was “A”.
